Experimental data published in ChEMBL document CHEMBL3046029, “Green approach towards the facile synthesis of dihydropyrano(c)chromene and pyrano[2,3-d]pyrimidine derivatives and their biological evaluation” (2013).
The source made the active and inactive calls. The rule behind the calls is not given here.

How the values were obtained:
Salmonella typhi [1] = test: Antibacterial activity against Salmonella enterica subsp. enterica serovar Typhi ATCC 19430 assessed as growth inhibition after 24 hr by disk diffusion method; format: functional
Pseudomonas aeruginosa = test: Antibacterial activity against Pseudomonas aeruginosa ATCC 27853 assessed as diameter of growth inhibition zone at 20 mg/ml after 24 hr by disk diffusion method; format: functional; details: ATCC 27853, 24 h, read-out: DIZ
Escherichia coli = test: Antibacterial activity against Escherichia coli ATCC 25922 assessed as diameter of growth inhibition zone at 20 mg/ml after 24 hr by disk diffusion method; format: functional; details: ATCC 25922, 24 h, read-out: DIZ
Priestia megaterium = test: Antibacterial activity against Bacillus megaterium ATCC 12872 assessed as diameter of growth inhibition zone at 20 mg/ml after 24 hr by disk diffusion method; format: functional; details: ATCC 12872, 24 h, read-out: DIZ
Klebsiella pneumoniae = test: Antibacterial activity against Klebsiella pneumoniae ATCC 15380 assessed as diameter of growth inhibition zone at 20 mg/ml after 24 hr by disk diffusion method; format: functional; details: ATCC 15380, 24 h, read-out: DIZ
Citrobacter freundii = test: Antibacterial activity against Citrobacter freundii ATCC 8090 = MTCC 1658 assessed as diameter of growth inhibition zone at 20 mg/ml after 24 hr by disk diffusion method; format: functional; details: ATCC 8090 = MTCC 1658, 24 h, read-out: DIZ
Salmonella typhi [2] = test: Antibacterial activity against Salmonella enterica subsp. enterica serovar Typhi ATCC 19430 assessed as diameter of growth inhibition zone at 20 mg/ml after 24 hr by disk diffusion method; format: functional; details: ATCC 19430, 24 h, read-out: DIZ
PC-3 = test: Anticancer activity against Homo sapiens (human) PC3 cells at 0.1 to 100 uM by SRB assay; format: functional, cell-based
OVCAR-3 = test: Anticancer activity against Homo sapiens (human) OVCAR3 cells at 0.1 to 100 uM by SRB assay; format: functional, cell-based
MDA-MB-435 = test: Anticancer activity against Homo sapiens (human) MDA-MB-435 cells at 0.1 to 100 uM by SRB assay; format: functional, cell-based

Row | Structure (SMILES) | MIC (Salmonella typhi [1]) [µg] | zone of inhibition at 20000 µg/mL (Pseudomonas aeruginosa) [mm] | zone of inhibition at 20000 µg/mL (Escherichia coli) [mm] | zone of inhibition at 20000 µg/mL (Priestia megaterium) [mm] | zone of inhibition at 20000 µg/mL (Klebsiella pneumoniae) [mm] | zone of inhibition at 20000 µg/mL (Citrobacter freundii) [mm] | zone of inhibition at 20000 µg/mL (Salmonella typhi [2]) [mm] | Activity (PC-3) | Activity (OVCAR-3) | Activity (MDA-MB-435)
1 | Cc1ccc(C2C(C#N)=C(N)Oc3[nH]c(=O)[nH]c(=O)c32)o1 (stereo not drawn) | 10 | 15 | 12 | 14 | 17 | 10 | 18 |  |  | 
2 | Cc1ccsc1C1C(C#N)=C(N)Oc2[nH]c(=O)[nH]c(=O)c21 (stereo not drawn) | 10 | 20 | 16 | 10 | 22 | 12 | 21 |  |  | 
3 | COc1cccc2c1C(=O)c1c(O)c3c(c(O)c1C2=O)C[C@@](O)(C(=O)CO)C[C@@H]3O[C@H]1C[C@H](N)[C@H](O)[C@H](C)O1 |  |  |  |  |  |  |  | Active | Active | Active
4 | Cc1ccc(C2C(C#N)=C(N)Oc3[nH]c(=O)[nH]c(=O)c32)s1 (stereo not drawn) | 10 | 22 | 16 | 10 | 22 | 12 | 20 |  |  | 
5 | N#CC1=C(N)Oc2[nH]c(=O)[nH]c(=O)c2C1c1ccco1 (stereo not drawn) | 10 | 14 | 12 | 14 | 16 | 10 | 18 | inactive | inactive | inactive
6 | N#CC1=C(N)Oc2[nH]c(=O)[nH]c(=O)c2C1c1ccc[nH]1 (stereo not drawn) | 10 | 18 | 14 | 12 | 20 | 12 | 22 |  |  | 
7 | CC1(C)CC(=O)C2=C(C1)OC(N)=C(C#N)C2c1ccc[nH]1 (stereo not drawn) | 10 | 20 | 20 | 12 | 19 | 10 | 22 |  |  | 
8 | CC1(C)CC(=O)C2=C(C1)OC(N)=C(C#N)C2c1ccco1 (stereo not drawn) | 10 | 14 | 16 | 12 | 15 | 10 | 15 | inactive | inactive | inactive
9 | Cc1ccc(C2C(C#N)=C(N)OC3=C2C(=O)CC(C)(C)C3)o1 (stereo not drawn) | 10 | 15 | 17 | 12 | 15 | 10 | 16 |  |  | 
10 | Cc1ccsc1C1C(C#N)=C(N)OC2=C1C(=O)CC(C)(C)C2 (stereo not drawn) | 10 | 22 | 21 | 12 | 20 | 10 | 19 |  |  | 
11 | CC1(C)CC(=O)C2=C(C1)OC(N)=C(C#N)C2c1cccs1 (stereo not drawn) | 10 | 20 | 20 | 10 | 19 | 10 | 22 |  |  | 
12 | Cc1ccc(C2C(C#N)=C(N)OC3=C2C(=O)CC(C)(C)C3)s1 (stereo not drawn) | 10 | 22 | 22 | 10 | 21 | 10 | 19 |  |  | 
13 | N#CC1=C(N)Oc2[nH]c(=O)[nH]c(=O)c2C1c1cccs1 (stereo not drawn) | 10 | 18 | 15 | 12 | 20 | 12 | 22 |  |  | 
